As usually defined, the IC50 is the concentration at which inhibition is half-maximal.

From BindingDB's records for doi:10.1111/cbdd.12580 (Sichuan University, 2015) come the findings set out here.

Experiment [1] addresses Carboxylic ester hydrolase (Rattus norvegicus, UniProt Q9JKC1). Briefly: Modified Ellman Assay. The protocol: (§1) Then, 5,5'-dithiobis-2-nitrobenzoic acid (DTNB, 0.2%, 30 μL) (J&K Scientific) was added.
In general terms: DTNB colorimetry detects thiols as they appear.

For another experiment, the target named is T1, Acetylcholinesterase (Rattus norvegicus, UniProt P37136).
T1 sequence (P37136 whole entry): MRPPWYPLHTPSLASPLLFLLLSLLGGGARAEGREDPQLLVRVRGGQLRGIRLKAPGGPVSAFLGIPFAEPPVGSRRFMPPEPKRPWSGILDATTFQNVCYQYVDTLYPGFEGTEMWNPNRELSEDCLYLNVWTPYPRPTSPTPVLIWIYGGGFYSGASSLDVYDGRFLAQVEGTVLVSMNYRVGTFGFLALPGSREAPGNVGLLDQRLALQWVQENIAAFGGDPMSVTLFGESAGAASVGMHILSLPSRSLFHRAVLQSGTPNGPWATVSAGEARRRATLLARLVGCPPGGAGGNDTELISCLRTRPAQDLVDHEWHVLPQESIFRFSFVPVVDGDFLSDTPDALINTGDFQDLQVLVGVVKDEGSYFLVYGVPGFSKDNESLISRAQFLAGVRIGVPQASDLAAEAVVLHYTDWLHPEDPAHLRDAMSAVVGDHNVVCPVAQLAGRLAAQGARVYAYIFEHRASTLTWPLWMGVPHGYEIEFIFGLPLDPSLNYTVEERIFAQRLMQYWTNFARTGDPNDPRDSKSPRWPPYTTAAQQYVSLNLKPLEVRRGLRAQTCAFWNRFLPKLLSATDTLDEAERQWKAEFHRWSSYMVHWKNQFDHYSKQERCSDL
Briefly: Modified Ellman Assay. The protocol:
as §1

Sequence of Carboxylic ester hydrolase (Q9JKC1 whole entry): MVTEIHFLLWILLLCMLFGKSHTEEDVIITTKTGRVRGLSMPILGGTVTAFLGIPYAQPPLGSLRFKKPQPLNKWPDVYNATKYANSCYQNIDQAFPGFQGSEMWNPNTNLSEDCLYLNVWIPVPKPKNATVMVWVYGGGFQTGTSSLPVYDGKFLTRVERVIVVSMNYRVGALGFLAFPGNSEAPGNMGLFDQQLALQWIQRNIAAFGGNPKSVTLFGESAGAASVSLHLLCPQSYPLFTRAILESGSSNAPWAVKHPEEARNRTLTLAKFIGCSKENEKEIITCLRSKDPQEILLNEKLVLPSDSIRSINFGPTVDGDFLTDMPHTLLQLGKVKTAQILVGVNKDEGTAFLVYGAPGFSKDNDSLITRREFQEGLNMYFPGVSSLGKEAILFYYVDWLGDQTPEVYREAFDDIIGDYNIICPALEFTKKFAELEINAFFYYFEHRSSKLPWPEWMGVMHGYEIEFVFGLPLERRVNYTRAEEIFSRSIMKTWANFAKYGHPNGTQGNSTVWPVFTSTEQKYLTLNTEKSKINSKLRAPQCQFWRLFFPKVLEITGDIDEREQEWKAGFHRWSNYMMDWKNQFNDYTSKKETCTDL

Regarding `CCN(C)C(=O)Oc1ccc(-c2cc(=O)c3c(O)c(O)c(O)cc3o2)cc1` [N-ethyl-N-methylcarbamic acid-4-(5,6,7-trihydroxy-4-oxo-4H-1-benzopyran-2-yl)phenyl ester (7d)], the IC50 worked out at 30.5 µM in experiment [1] and 2.7 µM against Acetylcholinesterase.

As to `CC(C)N(C(=O)Oc1ccc(-c2cc(=O)c3c(O)c(O)c(O)cc3o2)cc1)C(C)C` [N,N-bis(1-methylethyl)carbamic acid-4-(5,6,7-trihydroxy-4-oxo-4H-1-benzopyran-2-yl)phenyl ester (7c)], the IC50 was 42 µM in experiment [1] and 4 µM against Acetylcholinesterase.

Regarding `O=C(Oc1ccc(-c2cc(=O)c3c(O)c(O)c(O)cc3o2)cc1)N1CCOCC1` [4-Morpholinecarboxylic acid-4-(5,6,7-trihydroxy-4-oxo-4H-1-benzopyran-2-yl)phenyl ester (7f)], the IC50 was over 100 µM in experiment [1] and 28.5 µM against Acetylcholinesterase.

For `CN(C)C(=O)Oc1ccc(-c2cc(=O)c3c(O)c(O)c(O)cc3o2)cc1` [N,N-dimethylcarbamic acid-4-(5,6,7-trihydroxy-4-oxo-4H-1-benzopyran-2-yl)phenyl ester (7a)], the half-maximal inhibitory concentration (IC50) in experiment [1] was 32 µM; against Acetylcholinesterase, 6.3 µM.

On to `CCN(CC)C(=O)Oc1ccc(-c2cc(=O)c3c(O)c(OC)c(OC)cc3o2)cc1` [N,N-diethylcarbamic acid-4-(5-hydroxy-6,7-dimethoxy-4-oxo-4H-1-benzopyran-2-yl)phenyl ester (7j)], for which the IC50 in experiment [1] stood at 22.6 µM.

For the molecule `O=C(Oc1ccc(-c2cc(=O)c3c(O)c(O)c(O)cc3o2)cc1)N1CCC(Cc2ccccc2)CC1` [4-(Phenylmethyl)-1-piperidinecarboxylic acid-4-(5,6,7-trihydroxy-4-oxo-4H-1-benzopyran-2-yl)phenyl ester (7h)], the IC50 in experiment [1] stood at 35 µM; on Acetylcholinesterase, 62.2 µM.

In the case of `O=c1cc(-c2ccc(O)cc2)oc2cc(O)c(O)c(O)c12` [5,6,7-trihydroxy-2-(4-hydroxyphenyl)-4H-chromen-4-one], the IC50 (in experiment [1]; on Acetylcholinesterase) was over 100 µM throughout.

As to `O=C(Oc1ccc(-c2cc(=O)c3c(O)c(O)c(O)cc3o2)cc1)N1CCCCC1` [1-Piperidinecarboxylic acid-4-(5,6,7-trihydroxy-4-oxo-4H-1-benzopyran-2-yl)phenyl ester (7g)], the IC50 was over 100 µM in experiment [1] and 12.6 µM on Acetylcholinesterase.

For `CCN(CC)C(=O)Oc1ccc(-c2cc(=O)c3c(O)c(O)c(O)cc3o2)cc1` [N,N-diethylcarbamic acid-4-(5,6,7-trihydroxy-4-oxo-4H-1-benzopyran-2-yl)phenyl ester (7b)], the results for the 50% inhibitory concentration (IC50) (in experiment [1]; at Acetylcholinesterase) were 22.1 µM and 1.2 µM, respectively.

For the molecule `CCN(CC)C(=O)Oc1ccc(-c2cc(=O)c3c(OC(C)=O)c(OC(C)=O)c(OC(C)=O)cc3o2)cc1` [N,N-diethylcarbamic acid-4-[5,6,7-tris(acetyloxy)-4-oxo-4H-1-benzopyran-2-yl]phenyl ester (7k)], the half-inhibitory concentration (IC50) worked out at 50.3 µM in experiment [1] and 1.5 µM at Acetylcholinesterase.

Consider `O=C(Oc1ccc(-c2cc(=O)c3c(O)c(O)c(O)cc3o2)cc1)N1CCCC1` [1-Pyrrolidinecarboxylic acid-4-(5,6,7-trihydroxy-4-oxo-4H-1-benzopyran-2-yl)phenyl ester (7e)], for which the half-maximal inhibitory concentration (IC50) in experiment [1] was over 100 µM; against Acetylcholinesterase, 40.7 µM.

The molecule `CCN(CC)C(=O)Oc1ccc(-c2cc(=O)c3c(OC)c(OC)c(OC)cc3o2)cc1` [N,N-diethylcarbamic acid-4-(5,6,7-trimethoxy-4-oxo-4H-1-benzopyran-2-yl)phenyl ester (7i)] registered a concentration for half-maximal inhibition (IC50) in experiment [1] of 8.2 µM.

Turning to `CCN(CC)C(=O)Oc1ccc(-c2cc(=O)c3c(O)c(OC(C)=O)c(OC(C)=O)cc3o2)cc1` [N,N-diethylcarbamic acid-4-[6,7-bis(acetyloxy)-5-hydroxy-4-oxo-4H-1-benzopyran-2-yl]phenyl ester (7l)], the results for the IC50 (in experiment [1]; against Acetylcholinesterase) were 62.1 µM and 2 µM, respectively.
